# Values quoted from earlier work as cited in patent publication US12595109B2, “Device to release water and antimicrobial vapor into an enclosed or partially enclosed space” (Arkema Inc., priority 2020, dated 2026).
# Like-named read-outs stand apart in the source and are kept apart here.
# Assays:
# [1] = tested on: Geobacillus stearothermophilus; settings: biological indicator, 2 mg/L gaseous H2O2
# [2] = tested on: Clostridium sporogenes (Spores)
# [3] = tested on: Bacillus subtilis (Spores)
# [4] = Liquid solution of H2O2, c(H2O2) = 370 mg l^−1, T = 24-25° C.
# [5] = VPHP, c(H2O2) = 1-2 mg l^−1, T = 24-25° C.
structure (smiles),measurement,setting,value
OO [hydrogen peroxide],maximum exposure,"ACGIH, 5 times the TLV-TWA",no more than 5 ppm
same,TLV,"ACGIH, 8 hour TWA",1 ppm
same,STEL,United Kingdom and some other countries,2 ppm
same,Short Term Exposures (STELs),Washington and Hawaii,3 ppm
same,D-value,[1],0.8 min
same,D-value,[2]; [4],0.8 min
same,D-value,[2]; [5],0.5 to 1 min
same,D-value,Bacillus (Spores); [4],1.5 min
same,D-value,Bacillus (Spores); [5],1 to 2 min
same,D-value,[3]; [4],2.0 to 7.3 min
same,D-value,[3]; [5],0.5 to 1 min
